Measured values published in patent US8017633B2, “Roflumilast for the treatment of diabetes mellitus” (Nycomed GmbH, priority 2005, dated 2011).

Tested on: C57BLKS db/db mice
Assay: 10 days study: fasting blood glucose and oral glucose tolerance in db/db mice
Format: in vivo, mouse
Conditions: for Blood glucose (15 min after glucose application) / Blood glucose (before glucose application): fasted 24 h; for Blood glucose (15 min after glucose application): 15 min after oral 1 g/kg glucose; for Blood glucose (before glucose application): 1 h after dose
Procedure: Female C57BLKS db/db mice obtained from M&B A/S (8680 Ry, Denmark) were used in the studies at 10 to 11 weeks of age. Mice were housed 10 per cage and allowed free access to water and standard laboratory diet for rodents (chow 3433, Provimi Kliba SA, 4303 Kaiseraugst, Switzerland).
Mice were allowed to acclimate to the local animal facilities for 1 week and retro-orbital blood samples were obtained 3 to 7 days prior to the start of the study.
Mice were treated with vehicle, Roflumilast or Roflumilast-N-Oxide, respectively once daily in the morning. Roflumilast or Roflumilast-N-Oxide was suspended in 4% methocel and applied via oral gavage using oral feeding & dosing needles (outer diameter: 1.5 mm, TSE GmbH, 61350 Bad Homburg, Germany). A volume of 10 ml/kg body weight was administered for each dose.
10 days studies: Mice were treated with vehicle, Roflumilast or Roflumilast-N-Oxide once daily in the morning. On day 9, mice were fasted for 24 hours by removing standard diet for laboratory animals 1 hour after drug application. On day 10, one hour after administration of vehicle, Roflumilast or Roflumilast-N-Oxide glucose tolerance was assessed by oral application of 1 g/kg/10 ml glucose. Blood was sampled before and 15 minutes after glucose application and levels of glucose (accu-chek, Roche Diagnostics GmbH, 68298 Mannheim, Germany) were measured.

[1] = Roflumilast 1 mg/kg oral once daily 10 days
[2] = Roflumilast 10 mg/kg oral once daily 10 days

Structure (SMILES): O=C(Nc1c(Cl)cncc1Cl)c1ccc(OC(F)F)c(OCC2CC2)c1 [Roflumilast, 3-cyclopropylmethoxy-4-difluoromethoxy-N-(3,5-dichloropyrid-4-yl)benzamide]
- Blood glucose (15 min after glucose application) [1]: 507 mg/dL
- Blood glucose (before glucose application) [1]: 347 mg/dL
- Blood glucose (15 min after glucose application) [2]: 412 mg/dL
- Blood glucose (before glucose application) [2]: 191 mg/dL
- Effect on fasting blood glucose levels (summary in words) (db/db mice): reduce
- Effect on postprandial blood glucose levels (summary in words) (db/db mice): reduce
